Entries after “also recorded” stand apart in the source; their conditions may differ.
Tested on: Canola Variety 45H25
Assay: Herbicide resistance of canola variety 45H25 at standard recommended application rates
Format: in vivo, Brassica napus
Conditions: for Herbicide resistance (Description): response of variety 45H25 to the herbicide, in words; for Herbicide resistance rating (Mean): scale 0 = not tested, 1 = resistant, variety 45H25
From the text: When preparing the detailed phenotypic information that follows, plants of the new 45H25 variety were observed while growing using conventional agronomic practices. For comparative purposes canola plants of four publicly available canola lines were similarly grown in a three-replication experiment. Based on observations recorded on various morphological traits for the variety 45H25 and comparative check cultivars, variety 45H25 can be described as follow: […]

SMILES	Herbicide resistance (Description)	Herbicide resistance rating (Mean) (5 = tolerant, 9 = susceptible)	Herbicide resistance (Description) (listed as glyphosate)	Herbicide resistance rating (Mean) (2 = tolerant, 3 = susceptible)
CP(=O)(O)CCC(N)C(=O)O (centres unmarked) [Glufosinate]	susceptible	9.00	–	–
O=C(O)CNCP(=O)(O)O [Glyphosate]	resistant	–	resistance; also recorded: resistant	1.00

Source: patent US7335817B2, “Canola line 45H25” (Pioneer Hi-Bred International, Inc., priority 2005, dated 2008)
